The text below walks through data of publication PMC5639367, “Structure‐Guided Design of Peptides as Tools to Probe the Protein–Protein Interaction between Cullin‐2 and Elongin BC Substrate Adaptor in Cullin RING E3 Ubiquitin Ligases” (Chemmedchem, 2017).

Like-named read-outs stand apart in the source and are kept apart here. Square brackets hold non-standard residues; d marks the D form. Ends that are not written are not given here. Peptide text beside a SMILES is read from it. Chg = N[C@H](C(=O)O)C1CCCCC1; Pen = CC(C)(S)[C@H](N)C(=O)O; Phg = N[C@H](C(=O)O)c1ccccc1; Tle = CC(C)(C)[C@H](N)C(=O)O; Nva = CCC[C@H](N)C(=O)O

Data set [1] is described as follows: Precipitation of peptides in the conditions of the BLI experiment. Conditions: 20 mM HEPES pH 7.6, 100 mM NaCl, 1 mM DTT, 0.02 % Tween-20, 25 °C; visual. The format is physicochemical. The protocol: Based on the structural analysis of the Cul2‐VBC interface, we first aimed to recapitulate the interaction using N‐terminal Cul2 peptides varying from three to eleven residues. […] Thus, the next step was to enhance the binding affinity of the peptides toward VBC.
Biolayer interferometry: BLI experiments were performed in an Octet RED384 (FòrteBio). Biotinylated VBC (25 μg mL^−1) was immobilized on Super Streptavidin‐coated biosensor (FòrteBio). The experiments were conducted at 25 °C, in 20 mM HEPES pH 7.6, 100 mM NaCl, 1 mM DTT and 0.02 % (v/v) Tween‐20 buffer. The response of the reference tips was subtracted from the signal to account for unspecific binding. The data points were fitted using a 1:1 model.

The target in data set [2] is T1, VBC (Homo sapiens, UniProt P40337+Q15369+Q15370).
T1 construct: made in house; host or cells: E. coli BL21(DE3)
Nature of the data set: Biolayer interferometry (BLI) binding of peptides to immobilised VBC. The protocol: Biolayer interferometry: BLI experiments were performed in an Octet RED384 (FòrteBio). Biotinylated VBC (25 μg mL^−1) was immobilized on Super Streptavidin‐coated biosensor (FòrteBio). The experiments were conducted at 25 °C, in 20 mM HEPES pH 7.6, 100 mM NaCl, 1 mM DTT and 0.02 % (v/v) Tween‐20 buffer. The response of the reference tips was subtracted from the signal to account for unspecific binding. The data points were fitted using a 1:1 model. […]
peptides. Biotinylated VBC was immobilised on the tips and the peptides were tested in a concentration range from 27 µM to 7 mM. The different colours represent the different concentrations and corresponding responses. The assay was performed […]
Figure S2 – Biolayer interferomery experiments with the alanine scan peptides.
Biotinylated VBC was immobilised on the tips and the peptides were tested in a concentration range from 27 µM to 7 mM. The different colours represent the different concentrations and corresponding responses. The assay was performed in […]
leucine replacement versus VBC tested on a concentration-dependent assay. […]

In data set [3] the target is T2, native interaction between VBC and Cul2 (Homo sapiens, UniProt P40337+Q15369+Q15370).
T2 construct: made in house; host or cells: E. coli BL21(DE3) for VBC
Nature of the data set: AlphaLISA competition assay to displace Cul2 from VBC. The format is binding. Conditions: V6×HisBC 500 nM, biotinylated Rbx1-Cul2 150 nM. The protocol:
AlphaLISA: Anti‐His6 acceptor beads and Streptavidin donor beads (PerkinElmer) were used. […] The final volume of each well was 20 μL. The plate was then read in a PHERAstar FS (BMG LABTECH). Each of the competitors was titrated in quadruplicate. The fitting and IC50 determination were performed in GraphPad Prism 7 (GraphPad Software, La Jolla, CA, USA).
For orientation: Bead proximity is the source of the signal in Alpha formats.

The mark [4] stands for this setting: 8-mer peptide variants replacing Leu3, BLI, biotinylated VBC on Super Streptavidin biosensor, peptides 27 µM to 7 mM, 20 mM HEPES pH 7.6, 100 mM NaCl, 1 mM DTT, 0.02% Tween-20, 25 °C, 1:1 model, read-out: K d.

In the case of MSLKPRVVD [9‐mer], the “Precipitation in the conditions of the BLI experiment (in words)” value in data set [1] is given as “formed a white precipitate”. With MSYKPRVV-NH2 [D], the Kd in data set [2] (setting [4]) was 7400 ± 400 µM.

In the case of MSLKPRVVDFD [11‐mer], in data set [1], the “Precipitation in the conditions of the BLI experiment (in words)” value was “formed a white precipitate”.

Regarding `CSCC[C@H](N)C(=O)N[C@@H](CO)C(=O)N[C@H](C(=O)N[C@@H](CCCCN)C(=O)N1CCC[C@H]1C(=O)N[C@@H](CCCNC(=N)N)C(=O)N[C@H](C(=O)N[C@H](C(N)=O)C(C)C)C(C)C)C(C)(C)C` [G] (H-MS[Tle]KPRVV-NH2), the Kd in data set [2] (setting [4]) was 900 ± 100 µM. Same read-out and setting: the same measure for `CSCC[C@H](N)C(=O)N[C@@H](CO)C(=O)N[C@H](C(=O)N[C@@H](CCCCN)C(=O)N1CCC[C@H]1C(=O)N[C@@H](CCCNC(=N)N)C(=O)N[C@H](C(=O)N[C@H](C(N)=O)C(C)C)C(C)C)C1CCCCC1` [I] (H-MS[Chg]KPRVV-NH2): 8900 ± 700 µM; for `CSCC[C@H](N)C(=O)N[C@@H](CO)C(=O)N[C@H](C(=O)N[C@@H](CCCCN)C(=O)N1CCC[C@H]1C(=O)N[C@@H](CCCNC(=N)N)C(=O)N[C@H](C(=O)N[C@H](C(N)=O)C(C)C)C(C)C)c1ccccc1` [H] (H-MS[Phg]KPRVV-NH2): 2100 ± 600 µM. MSLKPRAV-NH2 had a Kd in data set [2] of 2100 ± 600 µM. Take `CSCC[C@H](N)C(=O)N[C@@H](CO)C(=O)N[C@H](C(=O)N[C@@H](CCCCN)C(=O)N1CCC[C@H]1C(=O)N[C@@H](CCCNC(=N)N)C(=O)N[C@H](C(=O)N[C@H](C(N)=O)C(C)C)C(C)C)C(C)(C)S` [Peptide J] (H-MS[Pen]KPRVV-NH2): the “Displacement of Cul2 from VBC in AlphaLISA (in words)” value in data set [3] was “displace Cul2”. Regarding MSFKPRVV-NH2 [C], the Kd in data set [2] (setting [4]) is 3100 ± 200 µM.

Turning to `CCC[C@H](NC(=O)[C@H](CO)NC(=O)[C@@H](N)CCSC)C(=O)N[C@@H](CCCCN)C(=O)N1CCC[C@H]1C(=O)N[C@@H](CCCNC(=N)N)C(=O)N[C@H](C(=O)N[C@H](C(N)=O)C(C)C)C(C)C` [F] (H-MS[Nva]KPRVV-NH2), the Kd in data set [2] (setting [4]) came out at 1900 ± 200 µM.
